Reference: paper PMC9586926, “An efflux-susceptible antibiotic-adjuvant with systemic efficacy against mouse infections” (Scientific Reports, 2022)
Values after ≈ are worked out from the molar mass of the structure shown. Where a SMILES comes first, the peptide text is derived from it. [ ]: non-standard residue; d: D form. The star is where a group is joined. 12Ado = NCCCCCCCCCCCC(=O)O; Decanoyl = CCCCCCCCCC(=O)*; Dap = NC[C@H](N)C(=O)O

Columns and labels:
[1] = system: E. coli Ag100 (wild-type); details: cited from earlier work
From the text: Table 2 Effect of RND pumps on growth-inhibitory activity. | column: MIC^a (µM) in LB / E. coli / Wild-Type

[2] = system: S. Typhimurium 14028 (wild-type); details: cited from earlier work
From the text: Table 2 Effect of RND pumps on growth-inhibitory activity. | column: MIC^a (µM) in LB / S. Typhimurium / Wild-Type

A. baumannii = test: MIC, broth microdilution; format: cell-based, Acinetobacter baumannii; details: broth microdilution in LB, 18–24 h, 37 °C; n = 1 strain
From the text: (§1) Bacteria used in this study consisted of standard American Type Culture Collection (ATCC; Biological Industries, Beit Haemek, Israel) strains, clinically isolated (CI; Sourasky Medical Center, Tel Aviv, Israel) strains, as well as isogenic mutant strains. Gram-negative bacteria included Acinetobacter baumannii ATCC 19606; Escherichia coli ATCC 25922, 35218, CFT073, CI 14384, 16327, and the isogenic pair Ag100 (wild-type) and its efflux deficient mutant Ag100a (ΔacrAB); Klebsiella pneumoniae CI 1287, 224; Pseudomonas aeruginosa ATCC 27853, CI 1278, 8634; Salmonella enterica serovar Typhimurium ATCC 14028 (wild-type) and its isogenic efflux deficient mutant ΔacrAB. Bacteria were grown in Luria–Bertani broth (LB; 5 g/l NaCl, 5 g/l yeast extract, 10 g/l tryptone; pH = 7.0) at 37 °C with shaking. Over-night cultures were diluted 10-folds into fresh growth-medium and incubated at 37 °C with shaking until reaching mid-logarithmic phase. Then, bacterial concentrations were adjusted using O.D.600 nm measurements, and bacteria were subjected to the experimental procedures listed herein.
(§2) MIC was determined according to the broth microdilution method: antimicrobials were subjected to serial twofold dilutions in LB medium, and incubated with 5 × 10^5 CFU/ml of bacteria (final volume of 200 µl) for 18–24 h at 37 °C. Then, O.D.620 nm was measured (BioTek Instruments Synergy HT; Winooski, VT, USA), and the MIC was defined as the lowest antimicrobial concentration for which no increase in O.D.620 nm was evident, compared to the untreated control.

E. coli = test: MIC, broth microdilution; format: cell-based, Escherichia coli; details: broth microdilution in LB, 18–24 h, 37 °C; n = 4 strains; published data in bold (not discernible)
From the text: as §1, §2

K. pneumoniae = test: MIC, broth microdilution; format: cell-based, Klebsiella pneumoniae; details: broth microdilution in LB, 18–24 h, 37 °C; n = 2 strains
From the text: as §1, §2

P. aeruginosa = test: MIC, broth microdilution; format: cell-based, Pseudomonas aeruginosa; details: broth microdilution in LB, 18–24 h, 37 °C; n = 3 strains
From the text: as §1, §2

E. coli Ag100a (ΔacrAB) = details: cited from earlier work
From the text: Table 2 Effect of RND pumps on growth-inhibitory activity. | column: MIC^a (µM) in LB / E. coli / Mutant

E. coli 25922 [3] = details: same assessment tools; cited from earlier work
From the text: To our knowledge, the finding of an adjuvant whose activity is enhanced—rather than repressed—after efflux, is hitherto unreported. One might ask, at this point: If the K-, O and B-based analogs are efflux substrates (as implied by MIC data, Table 2), how come only C10BBc12B is positively affected by efflux?

RAW 264.7 = test: Cytotoxicity, Alamar blue; format: cell-based, murine; details: 24 h incubation, read-out: IC50 RAW 264.7 (50% inhibition of cells respiration)
Method: (§3) Cell lines used in this study included murine RAW 264.7 macrophages and human embryonic kidney HEK-293FT cells (ATCC, Biological Industries, Beit Haemek, Israel). Cells were grown in Dulbecco’s modified eagle medium (DMEM) containing […] glucose, L-glutamine, sodium bicarbonate and sodium pyruvate, supplemented with 10% fetal bovine serum and pen-strep, at 37 °C and 5% CO2.
(§4) Lipopeptides cytotoxicity was determined using fluorescent measurements of reduced resazurin. 2 × 10^4 cells were first cultured in 96-well plates over-night (final volume of 100 µl) at 37 °C and 5% CO2. Then, the medium was removed and cells were incubated for an additional 24 h with serial twofold dilutions of the lipopeptides in growth medium. Then, 10 µl of Alamar blue were added and plates were incubated for 3 h, after which fluorescence (excitation: 530 nm; emission: 590 nm) of the reduced resazurin was recorded (BioTek Instruments Synergy HT; Winooski, VT, USA).

HEK-293FT = test: Cytotoxicity, Alamar blue; format: cell-based, human; details: 24 h incubation, read-out: IC50 HEK-293FT (50% inhibition of cells respiration)
Method: as §3, §4

[4] = system: S. Typhimurium 14028ΔAcrAB; details: cited from earlier work
From the text: Table 2 Effect of RND pumps on growth-inhibitory activity. | column: MIC^a (µM) in LB / S. Typhimurium / Mutant

murine RBC = test: Hemolysis; format: cell-based; details: 1% hematocrit murine RBC, 3 h, 37 °C
Method: Permeabilization of red blood cells (RBC) was evaluated using absorbance measurements of extracellular hemoglobin. Serial twofold dilutions of lipopeptides were incubated with 1% hematocrit of murine RBC for 3 h at 37 °C with shaking. Samples were then centrifuged at 20,000 RCF for 5 min, and absorbance of the supernatants was measured at 450 nm (BioTek Instruments Synergy HT; Winooski, VT, USA). Percent hemolysis was then calculated by (AS − AN)/(AP − AN) × 100; where AS, AN, and AP represent the absorbance of the sample, negative control (PBS) and positive control (Milli-Q water), respectively. LC50 values were extracted from trend-lines generated for linear-regions of plots correlating lipopeptide concentrations and percent hemolysis.

[5] = system: Gram-negative ESKAPE pathogens; test: MIC against 10 bacterial strains of the four Gram-negative ESKAPE species; format: cell-based
From the text: as §1
MIC was determined according to the broth microdilution method: antimicrobials were subjected to serial twofold dilutions in LB medium, and incubated with 5 × 10^5 CFU/ml of bacteria (final volume of 200 µl) for 18–24 h at 37 °C. […]

[6] = set-up: method as in PMID 20480482; details: cited from earlier work
E. coli 25922 [7] = test: Growth / time-kill kinetics; format: cell-based, Escherichia coli; details: 10 µM C10BBc12B, 1 µg/ml erythromycin or 20 ng/ml rifampin alone
Method: Antimicrobials mode of action was determined according to the rate of bacterial killing. Varying concentrations of lipopeptides, antibiotics and combinations thereof were mixed in LB medium with 5 × 10^5 CFU/ml of bacteria (final volume of 1 ml) and incubated at 37 °C with shaking. At the designated time-points aliquots were serially tenfold diluted in saline, plated on LB agar, and incubated over-night at 37 °C for enumeration.

A. baumannii 19606 = test: Selective pressure, MIC evolution over 15 consecutive subcultures; details: in absence of C10BBc12B
Method: The likelihood of antimicrobial-resistance development was assessed by recording MIC changes upon consecutive rounds of antimicrobials application, as in the MIC assay. Following each round, bacteria from wells corresponding to ½ of the resulting MIC were regrown in fresh media to mid-logarithmic phase and subjected to the same procedure for 15 consecutive days[66].

K. pneumoniae 1287 = test: Combination with antibiotics, modified checkerboard titration; format: cell-based, Klebsiella pneumoniae
Method: as §2
(§5) Lipopeptides and antibiotics combinations were assessed using a modified version of the checkerboard titration method: Antibiotics MIC was determined in LB medium containing sub-inhibitory lipopeptide concentrations. The sensitization factor (SF)[46] was then calculated by SF = MICA/MICC, where “MICA” is the antibiotic MIC in absence of an adjuvant and “MICC “ is the antibiotic MIC in presence of an adjuvant, for a specified adjuvant concentration. Combinations were classified as synergistic when antibiotics MIC were decreased by > 4 folds. Alternatively, the fractional inhibitory concentration index (FICI) was calculated by FICI = MICC1/MICA1 + MICC2/MICA2, where “MICC1” and “MICC2” respectively specify the antibiotic and the adjuvant MIC values upon their combination, whereas “MICA1” and “MICA2” respectively specify the antibiotic and the adjuvant MIC values when tested individually. Combinations were classified as synergistic for FICI < 0.5.

E. coli 25922 [8] = test: Peritonitis-sepsis infection model in neutropenic mice; format: in vivo; details: n = 10
Method: (§6) The study is reported in accordance with ARRIVE guidelines.
(§7) Lipopeptides potential application in monotherapy and/or combination-therapies was explored with two infection models. In the peritonitis-sepsis model, mice (n = 10 per group) were first rendered neutropenic by two intraperitoneal (I.P.) injections of 0.3 ml containing 150 mg/kg and 100 mg/kg cyclophosphamide, administered 4 days and 1 day before the experiment, respectively. […] Mice survival was recorded for up to 7 days. In a variant assay, bacteria in PBS (1.4 × 10^6) were pre-treated with 10 µM lipopeptides for 15 min, similarly administered, and mice survival was recorded for up to 3 days. In the urinary-tract infection (UTI) model, mice (N = 5 mice per group) were anesthetized by a single I.P. injection (0.2 ml) containing a mixture of ketamine (100 mg/kg) and xylazine (5 mg/kg). Following application of an analgesic 2% lidocaine gel on their penises, mice were infected intra-urethraly using a 24-gauge catheter with 1.2 × 10^8 CFU/mouse (0.05 ml) and treated with the vehicle control (S.C., 1 h post-infection), 2 mg/kg rifampin (oral gavage, immediately before anesthesia), 7.5 mg/kg q.i.d. lipopeptides (S.C., starting 1 h post-infection), or both. Mice were sacrificed 24 h post-infection, their bladder and kidneys aseptically excised, suspended in 5 ml of sterile PBS, homogenized for 3 min using a bench-top homogenizer, serially tenfold diluted in saline, plated on LB agar, and incubated over-night at 37 °C for enumeration.

E. coli 25922 [9] = format: cell-based, Escherichia coli; details: E. coli
Method: as §2, §5

UPEC CFT073 = test: Urinary-tract infection model; format: in vivo, mice; details: 24 h post-infection; 2 mg/kg rifampin, 7.5 mg/kg q.i.d. C10BBc12B or both; n = 5
Method: as §6, §7

Structure (SMILES) | MIC (µM) in LB, E. coli Wild-Type [1] [µM] | MIC (µM) in LB, S. Typhimurium Wild-Type [2] [µM] | MIC A. baumannii (n=1) (A. baumannii) [µM] | MIC E. coli (n=4) (E. coli) [µM] | MIC K. pneumoniae (n=2) (K. pneumoniae) [µM] | MIC (µM) in LB, E. coli Mutant (E. coli Ag100a (ΔacrAB)) [µM] | IC50 (RAW 264.7) [µM] | IC50 (HEK-293FT) [µM] | MIC (µM) in LB, S. Typhimurium Mutant [4] [µM] | LC50 Erythrocytes (50% hemolysis) (murine RBC) [µM] | effect on bacterial proliferation, individual agent (E. coli 25922 [7]) | antibiotic MIC after 15 consecutive subcultures (A. baumannii 19606) | antibiotic MIC before subculturing (A. baumannii 19606) [mg/L] | other results
CCCCCCCCCC(=O)N[C@@H](CCCCN)C(=O)N[C@@H](CCCCN)C(=O)NCCCCCCCCCCCC(=O)N[C@@H](CCCCN)C(N)=O [C10KKc12K] (Decanoyl-KK[12Ado]K-NH2) | > 50 | > 50 | > 50 | ≥ 50 | ≥ 50 | 6.2 (≈ 4.67 µg/mL) | > 50 | > 50 | 25 (≈ 18.8 µg/mL) | > 50 | – | – | – | MIC P. aeruginosa (n=3) (P. aeruginosa): > 50 µM; CM depolarization (E. coli 25922 [3]): interact with the CM to the point of inducing its depolarization
CCCCCCCCCC(=O)N[C@@H](CN)C(=O)N[C@@H](CN)C(=O)NCCCCCCCCCCCC(=O)N[C@@H](CN)C(N)=O [C10PPc12P] (Decanoyl-[Dap][Dap][12Ado][Dap]-NH2) | – | – | > 50 | 12.5 to 25 | ≥ 50 | – | > 50 | > 50 | – | 26 | – | – | – | MIC [5]: occasionally presented somewhat lower MIC values; side-chain β-NH2 group pKa [6]: 6.3
CC[C@H]1OC(=O)[C@H](C)[C@@H](O[C@H]2C[C@@](C)(OC)[C@@H](O)[C@H](C)O2)[C@H](C)[C@@H](O[C@@H]2O[C@H](C)C[C@H](N(C)C)[C@H]2O)[C@](C)(O)C[C@@H](C)C(=O)[C@H](C)[C@@H](O)[C@]1(C)O [Erythromycin] | > 50 | > 50 | – | – | – | 10.9 (≈ 8 µg/mL) | – | – | 6.8 (≈ 4.99 µg/mL) | – | unable to significantly alter bacterial proliferation | 8,192 µg/ml | 64 | antibiotic inhibitory concentration in absence of adjuvant (K. pneumoniae 1287): 512 µg/mL; antibiotic inhibitory concentration in presence of C10BBc12B (K. pneumoniae 1287): 0.250 µg/mL
CO[C@H]1/C=C/O[C@@]2(C)Oc3c(C)c(O)c4c(O)c(c(/C=N/N5CCN(C)CC5)c(O)c4c3C2=O)NC(=O)/C(C)=C\C=C\[C@H](C)[C@H](O)[C@@H](C)[C@@H](O)[C@@H](C)[C@H](OC(C)=O)[C@@H]1C [Rifampin, reference compound] | 19.4 (≈ 16 µg/mL) | 19.4 (≈ 16 µg/mL) | – | – | – | 19.4 (≈ 16 µg/mL) | – | – | 19.4 (≈ 16 µg/mL) | – | unable to significantly alter bacterial proliferation | 8 µg/mL | 2 | survival rate, monotherapy (E. coli 25922 [8]; 1.7 × 10^6 CFU/mouse, […] C10BBc12B S.C. 1 h post-infection or 20 mg/kg rifampin oral gavage): 50%; efficacy, monotherapy, higher inoculum (E. coli 25922 [8]; 1.9 × 10^6 CFU/mouse, […] C10BBc12B S.C. or 20 mg/kg rifampin oral): virtually no efficacy; antibiotic MIC in presence of C10BBc12B (E. coli 25922 [9]): below 1 ng/ml; antibiotic MIC in presence of C10BBc12B (K. pneumoniae 1287): below 1 ng/ml; bladder bacterial load (UPEC CFT073): no reduction in bacterial load
